# In patent US12611372B2, “Strain and use thereof” (LG HOUSEHOLD & HEALTH CARE LTD., priority 2021, dated 2026):
# What was measured:
# [1] = test system: human dermal fibroblast; experiment: Collagen synthesis rate, Procollagen Type I C-peptide (PIP) EIA kit; format: cell-based; conditions: positive control, 48 hours
# Experimental: Samples were treated with human dermal fibroblast for 48 hours at each concentration. The collagen synthesis rate was measured using a Procollagen Type I C-peptide (PIP) EIA kit. The collagen synthesis efficacy of the samples was calculated and measured as values in comparison with the negative control group (DMEM containing 0% serum).
# In order to confirm the collagen synthesis enhancement effect of the Saccharomyces cerevisiae KCTC14779BP fermented product, the collagen synthesis rate was compared for normal cells, and normal cells treated with TGF-β, Saccharomyces cerevisiae KCTC14779BP fermented product, and normal yeast (Saccharomyces cerevisiae KCTC7296) fermented product (Table 3).
# The confirmation of collagen synthesis enhancement effect was performed in the same manner as in Example 3-1, and the collagen synthesis rate was compared for normal cells, and normal cells treated with TGF-β, Saccharomyces cerevisiae KCTC14780BP fermented product, and fraction containing the yeast polypeptide (Table 4).
# The confirmation of collagen synthesis enhancement effect was performed in the same manner as in Example 3-1, and the collagen synthesis rate was compared for normal cells, and normal cells treated with TGF-β, Lactobacillus fructivorans KCTC14776BP fermented product, and normal Lactobacillus (Lactobacillus plantarum KCTC3108) fermented product (Table 5).
# The confirmation of collagen synthesis enhancement effect was performed in the same manner as in Example 3-1, and the collagen synthesis rate was compared for normal cells, and normal cells treated with TGF-β, Bacillus paramycoides KCTC14777BP fermented product, and normal Bacillus (Bacillus megaterium KCTC3007) fermented product (Table 6).
# [2] = test system: loricrin (LOR); experiment: Loricrin (LOR) gene expression in TNF-a-treated HaCaT cells, qPCR; format: cell-based, human; conditions: Control: TNF-a 10 pg/mL alone; untreated group = 1
# Experimental: After treating HaCaT cells with TNF-a (10 pg/mL) for 3 hours, samples were diluted for each concentration, mixed with TNF-a-treated HaCaT cells, and cultured for 24 hours. The degree of increase in the expression of loricrin (LOR), a major component of the skin barrier, was quantified using qPCR (Table 18).
# [3] = test system: Raw 264.7 cells; experiment: NO production inhibitory ability, LPS-treated cells, NO assay kit; format: cell-based; conditions: positive control, 20 μg/mL, LPS 1 μg/mL, 24 hours
# Experimental: Raw 264.7 cells were diluted for each concentration, treated with 1 μg/mL of LPS, and cultured for 24 hours. The NO production inhibitory ability was evaluated as follows using a NO assay kit (Table 13).
# The confirmation of skin soothing and inflammation improvement effects was performed in the same manner as in Example 6-1 (Table 14).
# [4] = molecular target: T1, TRPV1 (transient receptor potential vanilloid-1) (Homo sapiens, UniProt Q8NER1); experiment: TRPV1 activity, calcium influx detection assay in HEK 293T-TRPV1 cells; format: cell-based; conditions: untreated group 83.57
# T1 construct: expressed in transfected cells; host or cells: HEK 293T-TRPV1 cells
# T1 sequence (Q8NER1 whole entry, species assumed): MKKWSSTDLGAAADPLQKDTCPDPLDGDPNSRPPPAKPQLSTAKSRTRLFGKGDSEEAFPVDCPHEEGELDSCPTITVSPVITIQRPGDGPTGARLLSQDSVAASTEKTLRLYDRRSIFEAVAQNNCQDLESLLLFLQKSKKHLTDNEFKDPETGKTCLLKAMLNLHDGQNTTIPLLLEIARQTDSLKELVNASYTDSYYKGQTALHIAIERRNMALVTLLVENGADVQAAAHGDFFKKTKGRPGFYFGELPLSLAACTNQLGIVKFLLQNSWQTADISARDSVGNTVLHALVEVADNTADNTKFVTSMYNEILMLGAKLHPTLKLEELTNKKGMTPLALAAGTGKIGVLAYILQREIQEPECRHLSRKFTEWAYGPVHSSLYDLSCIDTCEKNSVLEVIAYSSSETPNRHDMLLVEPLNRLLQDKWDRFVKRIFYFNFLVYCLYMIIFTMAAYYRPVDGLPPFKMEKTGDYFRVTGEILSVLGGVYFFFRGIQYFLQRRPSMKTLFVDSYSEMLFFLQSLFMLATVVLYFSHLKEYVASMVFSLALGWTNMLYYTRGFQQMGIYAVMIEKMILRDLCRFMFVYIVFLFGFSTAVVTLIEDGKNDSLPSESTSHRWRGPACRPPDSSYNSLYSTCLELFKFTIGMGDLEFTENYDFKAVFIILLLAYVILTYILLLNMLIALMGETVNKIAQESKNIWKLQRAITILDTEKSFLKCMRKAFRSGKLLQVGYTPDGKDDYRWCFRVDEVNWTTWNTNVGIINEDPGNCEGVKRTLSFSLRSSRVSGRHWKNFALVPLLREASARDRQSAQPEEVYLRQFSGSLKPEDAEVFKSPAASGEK
# [5] = test system: human keratinocyte HaCaT; experiment: Hyaluronic acid synthesis, Quantikine ELISA Hyaluronan; format: cell-based; conditions: positive control, 1 ppm, 72 hours
# Experimental: Samples were treated with human keratinocyte HaCaT for 72 hours at each concentration. Hyaluronic acid synthesis was compared with the control group (DMEM treatment containing 0% serum) using Quantikine ELISA Hyaluronan from R&D Systems to quantify the moisturizing ability (Table 7).
# The confirmation of hyaluronic acid synthesis enhancement effect was performed in the same manner as in Example 4-1 (Table 8).
# The confirmation of hyaluronic acid synthesis enhancement effect was performed in the same manner as in Example 4-1 (Table 9).
# The confirmation of hyaluronic acid synthesis enhancement effect was performed in the same manner as in Example 4-1 (Table 10).
# The confirmation of hyaluronic acid synthesis enhancement effect was performed in the same manner as in Example 4-1 (Table 11).
# [6] = DPPH free radical scavenging; format: biochemical; conditions: 0.15 mM DPPH, room temperature, 30 minutes, absorbance at 540 nm
# [7] = test system: B16f10 melanocytes; experiment: Melanin production inhibition; format: cell-based; conditions: treatment concentration 0.02%; 72 hours
# Experimental: Samples were diluted in B16f10 melanocytes at each concentration, treated for 72 hours, and cultured, and then, the amount of melanin pigment present in melanocytes was quantified. The melanin production inhibitory rate was calculated in comparison to the total protein amount, and the values thereof were measured as percentage (%) based on the DMSO control (DMEM containing 0% serum) set to 100%.
# In order to measure the degree of decrease in the amount of melanin pigment in the Saccharomyces cerevisiae KCTC14780BP fermented product and the fraction containing the yeast polypeptide, the inhibition rate of melanin production was compared upon treatment with the positive control group (Arbutin 200 ppm (Lim Y. J. et al., 2009, Arch Pharm Res.)), the Saccharomyces cerevisiae KCTC14780BP fermented product and the fraction containing the yeast polypeptide (Table 15).
molecule,measurement,setting,value
TGF-β,Collagen Synthesis Rate (% of control),"[1]; Table 3, 10 ppb, vs negative control (DMEM 0% serum)",27.55 % of control
same,Collagen Synthesis Rate (% of control),"[1]; Table 4, 10 ng/mL",23.92 % of control
same,Collagen Synthesis Rate (% of control),"[1]; Table 5, 10 ppb",24.6 % of control
same,Collagen Synthesis Rate (% of control),"[1]; Table 6, 10 ppb",20.84 % of control
TNF-a,"LOR Gene Expression (Relative mRNA level, of control)",[2],0.39
CNC(=N)NCCC[C@H](N)C(=O)O [L-NMMA],NO production inhibitory ability (% of control),[3]; Table 13,47.9 % of control
same,NO production inhibitory ability (% of control),[3]; Table 14,47.9 % of control
Capsazepin,"TRPV1 Activity (RFU, relative fluorescent unit)","[4]; 3 μM, TRPV1 activity inhibition",75.91 RFU
COc1cc(CNC(=O)CCCC/C=C/C(C)C)ccc1O [Capsaicin],"TRPV1 Activity (RFU, relative fluorescent unit)","[4]; 10 μM, TRPV1 activity induction",101.86 RFU
CC1=C(/C=C/C(C)=C/C=C/C(C)=C/C(=O)O)C(C)(C)CCC1 [Retinoic acid],Hyaluronic Acid Synthesis Rate (% of control),[5]; Table 7,13.6 % of control
same,Hyaluronic Acid Synthesis Rate (% of control),[5]; Table 8,17.8 % of control
same,Hyaluronic Acid Synthesis Rate (% of control),[5]; Table 9,27.6 % of control
same,Hyaluronic Acid Synthesis Rate (% of control),[5]; Table 10,22.0 % of control
same,Hyaluronic Acid Synthesis Rate (% of control),[5]; Table 11,15.4 % of control
O=C1O[C@H]([C@@H](O)CO)C(O)=C1O [Vitamin C],IC 50 (%),[6],0.000606 ± 0.00006%
OC[C@H]1O[C@@H](Oc2ccc(O)cc2)[C@H](O)[C@@H](O)[C@@H]1O [Arbutin],Melanin Production Inhibition (%),[7],56.4%
